Results reported in patent US7211572B2 (Japan Tobacco Inc., priority 2003, dated 2007).
Where a name gives a salt, the structure may show the parent alone.

Molecular target: T1, HIV integrase (Human immunodeficiency virus type 1 group M subtype B, UniProt P12497, F1332H)
T1 construct: HIV integrase full length gene; made in house; host or cells: Escherichia coli BL21(DE3), plasmid pET21a-INH
Experiment: Determination of enzyme (HIV integrase) inhibitory activity
Assay type: biochemical
Settings: recombinant HIV integrase (F185H), strand transfer ELISA, absorbance at 450 nm
Procedure, shortened: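 Full-length integrase with F185H, expressed in E. coli and purified, was reacted for 60 min at 37 °C with compound and biotinylated donor DNA bound to streptavidin plates. Target DNA was added for 10 min, then anti-digoxigenin-peroxidase detection at A450; IC50 from % inhibition versus enzyme-free blank.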

Row | Compound | IC50
1 | O=c1c(Br)cn2ccn(Cc3cccc(Cl)c3)c(=O)c2c1O [Example 94, 7-bromo-2-(3-chlorobenzyl)-9-hydroxy-2H-pyrido[1,2-a]pyrazine-1,8-dione hydrochloride] | 0.01 to 0.1 µM
2 | O=c1ccn2ccn(CCCc3c(F)cccc3Cl)c(=O)c2c1O [Example 95, 2-[3-(2-chloro-6-fluorophenyl)propyl]-9-hydroxy-2H-pyrido[1,2-a]pyrazine-1,8-dione hydrochloride] | 0.01 to 0.1 µM
3 | O=c1c(-c2ccccc2)cn2ccn(Cc3cccc(Cl)c3)c(=O)c2c1O [Example 96, 2-(3-chlorobenzyl)-9-hydroxy-7-phenyl-2H-pyrido[1,2-a]pyrazine-1,8-dione hydrochloride] | < 0.01 µM
4 | CN(C)C(=O)c1cn(Cc2cccc(Cl)c2)c(=O)c2c(O)c(=O)ccn12 [Example 97, N,N-dimethyl-2-(3-chlorobenzyl)-9-hydroxy-1,8-dioxo-1,8-dihydro-2H-pyrido[1,2-a]pyrazine-4-carboxamide] | 0.01 to 0.1 µM
5 | O=C(O)c1cn(Cc2cccc(Cl)c2)c(=O)c2c(O)c(=O)ccn12 [Example 98, 2-(3-chlorobenzyl)-9-hydroxy-1,8-dioxo-1,8-dihydro-2H-pyrido[1,2-a]pyrazine-4-carboxylic acid] | 0.01 to 0.1 µM
6 | O=c1c(O)c2c(=O)n(Cc3cccc(Cl)c3)ccn2c2ccccc12 [Example 99, 3-(3-chlorobenzyl)-5-hydroxy-3H-pyrazino[1,2-a]quinoline-4,6-dione hydrochloride] | 0.01 to 0.1 µM
7 | O=c1ncn2ccn(Cc3cccc(Cl)c3)c(=O)c2c1O [Example 100, 2-(3-chlorobenzyl)-9-hydroxy-2H-pyrazino[1,2-c]pyrimidine-1,8-dione hydrochloride] | 0.01 to 0.1 µM
8 | O=Cc1cn(Cc2cccc(Cl)c2)c(=O)c2c(O)c(=O)ccn12 [Example 101, 2-(3-chlorobenzyl)-9-hydroxy-1,8-dioxo-1,8-dihydro-2H-pyrido[1,2-a]pyrazine-4-carbaldehyde] | 0.01 to 0.1 µM
9 | O=c1ccn2c(CO)cn(Cc3cccc(Cl)c3)c(=O)c2c1O [Example 102, 2-(3-chlorobenzyl)-9-hydroxy-4-hydroxymethyl-2H-pyrido[1,2-a]pyrazine-1,8-dione] | 0.01 to 0.1 µM
10 | CC(O)c1cn(Cc2cccc(Cl)c2)c(=O)c2c(O)c(=O)ccn12 (centres unmarked) [Example 103, 2-(3-chlorobenzyl)-9-hydroxy-4-(1-hydroxyethyl)-2H-pyrido[1,2-a]pyrazine-1,8-dione] | 0.01 to 0.1 µM
11 | CC(C)c1cn2ccn(Cc3cccc(Cl)c3)c(=O)c2c(O)c1=O [Example 104, 2-(3-chlorobenzyl)-9-hydroxy-7-isopropyl-2H-pyrido[1,2-a]pyrazine-1,8-dione hydrochloride] | 0.01 to 0.1 µM
12 | CC(=O)c1cn(Cc2cccc(Cl)c2)c(=O)c2c(O)c(=O)ccn12 [Example 105, 4-acetyl-2-(3-chlorobenzyl)-9-hydroxy-2H-pyrido[1,2-a]pyrazine-1,8-dione] | 0.01 to 0.1 µM
13 | Cn1cc2c(c(O)c1=O)C(=O)N(Cc1cccc(Cl)c1)CC2 [Example 106, 2-(3-chlorobenzyl)-8-hydroxy-6-methyl-2,3,4,6-tetrahydro-2,6-naphthyridine-1,7-dione] | 0.01 to 0.1 µM
14 | N#Cc1cn(Cc2cccc(Cl)c2)c(=O)c2c(O)c(=O)ccn12 [Example 107, 2-(3-chlorobenzyl)-9-hydroxy-1,8-dioxo-1,8-dihydro-2H-pyrido[1,2-a]pyrazine-4-carbonitrile] | 0.01 to 0.1 µM
15 | O=C1c2c(O)c(=O)ncn2CCN1Cc1cccc(Cl)c1 [Example 108, 2-(3-chlorobenzyl)-9-hydroxy-3,4-dihydro-2H-pyrazino[1,2-c]pyrimidine-1,8-dione] | 0.01 to 0.1 µM
16 | CS(=O)(=O)Oc1c(=O)c(Br)cn2ccn(Cc3cccc(Cl)c3)c(=O)c12 [Example 109, 7-bromo-2-(3-chlorobenzyl)-1,8-dioxo-1,8-dihydro-2H-pyrido[1,2-a]pyrazin-9-yl methanesulfonate] | 0.1 to 1 µM
17 | O=C1c2c(O)c(=O)c(Br)cn2CC(O)N1Cc1cccc(Cl)c1 (centres unmarked) [Example 110, 7-bromo-2-(3-chlorobenzyl)-3,9-dihydroxy-3,4-dihydro-2H-pyrido[1,2-a]pyrazine-1,8-dione hydrochloride] | 0.1 to 1 µM
18 | O=C1c2c(O)c(=O)c3ccccc3n2CCN1Cc1cccc(Cl)c1 [Example 111, 3-(3-chlorobenzyl)-5-hydroxy-2,3-dihydro-1H-pyrazino[1,2-a]quinoline-4,6-dione] | 0.01 to 0.1 µM
19 | O=c1c(-c2cccc(Cl)c2)cn2ccn(Cc3cccc(Cl)c3)c(=O)c2c1O [Example 112, 2-(3-chlorobenzyl)-7-(3-chlorophenyl)-9-hydroxy-2H-pyrido[1,2-a]pyrazine-1,8-dione hydrochloride] | 0.01 to 0.1 µM

Row | Compound | IC50
20 | O=c1c(-c2ccc(Cl)cc2)cn2ccn(Cc3cccc(Cl)c3)c(=O)c2c1O [Example 113, 2-(3-chlorobenzyl)-7-(4-chlorophenyl)-9-hydroxy-2H-pyrido[1,2-a]pyrazine-1,8-dione hydrochloride] | 0.01 to 0.1 µM
21 | O=c1c(-c2ccccc2Cl)cn2ccn(Cc3cccc(Cl)c3)c(=O)c2c1O [Example 114, 2-(3-chlorobenzyl)-7-(2-chlorophenyl)-9-hydroxy-2H-pyrido[1,2-a]pyrazine-1,8-dione hydrochloride] | < 0.01 µM
22 | O=c1c(-c2cccnc2)cn2ccn(Cc3cccc(Cl)c3)c(=O)c2c1O [Example 115, 2-(3-chlorobenzyl)-9-hydroxy-7-(pyridin-3-yl)-2H-pyrido[1,2-a]pyrazine-1,8-dione hydrochloride] | < 0.01 µM
23 | O=c1c(-c2ccncc2)cn2ccn(Cc3cccc(Cl)c3)c(=O)c2c1O [Example 116, 2-(3-chlorobenzyl)-9-hydroxy-7-(pyridin-4-yl)-2H-pyrido[1,2-a]pyrazine-1,8-dione hydrochloride] | < 0.01 µM
24 | O=c1c(-c2ccccn2)cn2ccn(Cc3cccc(Cl)c3)c(=O)c2c1O [Example 117, 2-(3-chlorobenzyl)-9-hydroxy-7-(pyridin-2-yl)-2H-pyrido[1,2-a]pyrazine-1,8-dione hydrochloride] | < 0.01 µM
25 | CC(C)(C)C(O)c1cn2ccn(Cc3cccc(Cl)c3)c(=O)c2c(O)c1=O (centres unmarked) [Example 118, 2-(3-chlorobenzyl)-9-hydroxy-7-(1-hydroxy-2,2-dimethylpropyl)-2H-pyrido[1,2-a]pyrazine-1,8-dione hydrochloride] | 0.01 to 0.1 µM
26 | O=c1c(-c2ccccc2)cn2c(CC3CCCCC3)cn(Cc3cccc(Cl)c3)c(=O)c2c1O [Example 119, 2-(3-chlorobenzyl)-4-cyclohexylmethyl-9-hydroxy-7-phenyl-2H-pyrido[1,2-a]pyrazine-1,8-dione hydrochloride] | 0.1 to 1 µM
27 | O=c1c(-c2ccco2)cn2ccn(Cc3cccc(Cl)c3)c(=O)c2c1O [Example 120, 2-(3-chlorobenzyl)-7-(furan-2-yl)-9-hydroxy-2H-pyrido[1,2-a]pyrazine-1,8-dione hydrochloride] | < 0.01 µM
28 | Cn1cc2c(c(O)c1=O)C(=O)N(Cc1ccc(Cl)c(Cl)c1)CC2 [Example 121, 2-(3,4-dichlorobenzyl)-8-hydroxy-6-methyl-2,3,4,6-tetrahydro-2,6-naphthyridine-1,7-dione] | < 0.01 µM
29 | Cn1cc2c(c(O)c1=O)C(=O)N(CCCc1c(F)cccc1Cl)CC2 [Example 122, 2-[3-(2-chloro-6-fluorophenyl)propyl]-8-hydroxy-6-methyl-2,3,4,6-tetrahydro-2,6-naphthyridine-1,7-dione] | < 0.01 µM
30 | Cn1nc2c(c(O)c1=O)C(=O)N(Cc1cccc(Cl)c1)CC2 [Example 123, 6-(3-chlorobenzyl)-4-hydroxy-2-methyl-2,6,7,8-tetrahydropyrido[4,3-c]pyridazine-3,5-dione] | 0.1 to 1 µM
31 | O=c1c(-c2cc3ccccc3o2)cn2ccn(Cc3cccc(Cl)c3)c(=O)c2c1O [Example 124, 7-(benzofuran-2-yl)-2-(3-chlorobenzyl)-9-hydroxy-2H-pyrido[1,2-a]pyrazine-1,8-dione hydrochloride] | 0.01 to 0.1 µM
32 | CC(C)(C)C(=O)c1cn2ccn(Cc3cccc(Cl)c3)c(=O)c2c(O)c1=O [Example 125, 2-(3-chlorobenzyl)-7-(2,2-dimethylpropionyl)-9-hydroxy-2H-pyrido[1,2-a]pyrazine-1,8-dione hydrochloride] | < 0.01 µM
33 | CC(C)(C)Cc1cn2ccn(Cc3cccc(Cl)c3)c(=O)c2c(O)c1=O [Example 126, 2-(3-chlorobenzyl)-7-(2,2-dimethylpropyl)-9-hydroxy-2H-pyrido[1,2-a]pyrazine-1,8-dione hydrochloride] | 0.01 to 0.1 µM
34 | O=c1c(-c2ccccc2C(F)(F)F)cn2ccn(Cc3cccc(Cl)c3)c(=O)c2c1O [Example 127, 2-(3-chlorobenzyl)-9-hydroxy-7-(2-trifluoromethylphenyl)-2H-pyrido[1,2-a]pyrazine-1,8-dione hydrochloride] | < 0.01 µM
35 | COc1cccc(-c2cn3ccn(Cc4cccc(Cl)c4)c(=O)c3c(O)c2=O)c1 [Example 128, 2-(3-chlorobenzyl)-9-hydroxy-7-(3-methoxyphenyl)-2H-pyrido[1,2-a]pyrazine-1,8-dione hydrochloride] | 0.01 to 0.1 µM
36 | CC(C)c1cn(Cc2cccc(Cl)c2)c(=O)c2c(O)c(=O)c(Br)cn12 [Example 129, 7-bromo-2-(3-chlorobenzyl)-9-hydroxy-4-isopropyl-2H-pyrido[1,2-a]pyrazine-1,8-dione hydrochloride] | 0.01 to 0.1 µM
37 | O=c1c(-c2ccccc2F)cn2ccn(Cc3cccc(Cl)c3)c(=O)c2c1O [Example 130, 2-(3-chlorobenzyl)-7-(2-fluorophenyl)-9-hydroxy-2H-pyrido[1,2-a]pyrazine-1,8-dione hydrochloride] | < 0.01 µM
38 | CC(C)c1cn(Cc2cccc(Cl)c2)c(=O)c2c(O)c(=O)c(-c3ccccc3)cn12 [Example 131, 2-(3-chlorobenzyl)-9-hydroxy-4-isopropyl-7-phenyl-2H-pyrido[1,2-a]pyrazine-1,8-dione hydrochloride] | 0.01 to 0.1 µM
